Results from patent US11083714B2, “Selective anti-cancer agent effective for prevention and treatment” (Molecular International Research, Inc., priority 2018, dated 2021).
“Also recorded” adds a separate entry of the source.

Tests used:
[1] = tested on: PANC-1 pancreatic cancer cells; test: Anchorage independent colony formation in soft agar; format: cell-based; settings: 10 μM or 15 μM, 20 days; listed as De-ethylflavopereirine
Text: FIG. 13. Colony formation in soft agar of PANC-1 pancreatic cancer cells with or without de-ethylflavopereirine treatment.
Anchorage independent colony formation assay in soft agar was used to test long-term survival (20 days) of tumorigenic pancreatic cancer cells after exposure to de-ethylflavopereirine. PANC-1 cells formed colonies at the rate of 12% when untreated. […] No tumorigenic cancer cells survived after exposure to compound 13-9-1 (FIG. 13).

PANC-1 tumors = test: Orthotopic PANC-1 luciferase tumors in nude mice; format: in vivo
Text: FIG. 16. Animal Study. PANC-1 cells with luciferase gene were orthotopically implanted into the pancreas of nude mice and the tumors were monitored by live-animal imaging. Longitudinal tumor growth shown by quantification of all images in the treated group (lozenges, n=9) and the untreated group (squares, n=10). Tumor burden is represented by average total photon flux (top) and its log transform (bottom).
Human PANC-1 pancreatic cancer cells were transfected with the luciferase gene to enable imaging in vivo. These cells were transplanted into the pancreas of nude mice and, after 10 days, tumors were established in the mice and they were treated with de-ethylflavopereirine by oral gavage. Longitudinal tumor progress was followed by live-animal imaging. The results of this experiment are depicted in FIGS. 16 to 21.

PANC-1 cancer stem cells = test: Tumor formation of PANC-1 cancer stem cells (FIG. 27); format: in vivo, mice; settings: 2×10^5 pre-treated PANC-1 cells
Procedure: FIG. 27. Reduction of tumor formation by de-ethylflavopereirine. Compound 13-9-1 reduced tumor formation of PANC-1 cancer stem cells.
Mice were then treated with de-ethylflavopereirine for 20 days after injection. […] Maximum tumor formation rate reached 80% at day 39, which is a highly significant difference compared to control (P=0.001 by log-rank test).

β-catenin = β-catenin localization in PANC-1 cells (Wnt signaling); format: cell-based
Text: FIG. 28. Effect of de-ethylflavopereirine on β-catenin localization in the nucleus of PANC-1 cells. […] Cytoplasmic β-catenin levels were not affected under these conditions. Vinculin provided a marker for a cytoplasmic protein that is present in very low amounts in the nucleus.
Wnt pathway activation involves translocation of β-catenin from the cytoplasm into the nucleus and subsequent changes in transcription of targeted genes. Suppression of Wnt activation occurs when the translocation of β-catenin into the nucleus is suppressed. […] So de-ethylflavopereirine inhibits the growth of pancreatic cancer stem cells in part because it specifically suppresses Wnt signaling.

c1ccc2c(c1)[nH]c1c2cc[n+]2ccccc12 [Compound 13-9-1, 12H-indolo[2,3-a]quinolizin-5-ium]
colony formation in soft agar [1]: completely inhibited formation of PANC-1 colonies; also recorded: completely inhibited colony formation
body weight compared with untreated control group (PANC-1 tumors; day 0 through day 40): indistinguishable
mice whose tumors were completely abolished (PANC-1 tumors; oral gavage): 22%
anti-tumor effect by tumor burden (total photon flux) (PANC-1 tumors; oral gavage, treated (n=9) vs untreated (n=10)): significant
mice whose tumors were completely abolished (number of animals) (PANC-1 tumors; oral gavage, listed as de-ethylflavopereirine): 2/9 and two of 21
examination of internal organs (PANC-1 tumors; treated vs untreated): failed to reveal any toxic effects
final tumor weights at necropsy (PANC-1 tumors; treated vs untreated): statistically significant reduction
metastatic lesions at necropsy (PANC-1 tumors; treated vs untreated): reduced
tumor formation (PANC-1 cancer stem cells; Day 20): 55%
maximum tumor formation rate (PANC-1 cancer stem cells; Day 39): 80%
cytoplasmic β-catenin levels (β-catenin; 24 and 48 hr): not affected
β-catenin levels in the nucleus (β-catenin; 24 hr post-treatment): no effect
β-catenin levels in the nucleus (β-catenin; 48 hr post-treatment): significantly reduced
